Among the data in PubChem BioAssay AID328 (DTP/NCI, 2004) are T/C values, retold here.

“And” between values parts separate entries of the source, which are not always exact repeats. Identical values can stand only once. Toxic doses and inconclusive results are not listed.

The subject of this experiment is BDF1 mice, P388 leukemia ip, median survival T/C. As to the kind of experiment: NCI In Vivo Anticancer Drug Screen. Data for tumor model P388 Leukemia (intraperitoneal) in B6D2F1 (BDF1) mice. The note with it: endpoint: median survival time, higher = longer survival. Put shortly: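 Read-out is survival of treated animals expressed relative to the vehicle group, as a T/C ratio.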

Where [1] appears, read: dose: 100.0 mg/kg/injection, schedule: Q01DX009 (ip), vehicle: saline.
The mark [2] stands for this setting: dose: 100.0 mg/kg/injection, schedule: Q04DX003 (ip), vehicle: saline.
[3] abbreviates: dose: 200.0 mg/kg/injection, schedule: Q04DX003 (ip), vehicle: saline.
Where [4] appears, read: dose: 400.0 mg/kg/injection, schedule: Q04DX003 (ip), vehicle: saline with Tween-80.
Setting [5] is: dose: 50.0 mg/kg/injection, schedule: Q01DX009 (ip), vehicle: saline with Tween-80.
The mark [6] stands for this setting: dose: 100.0 mg/kg/injection, schedule: Q01DX009 (ip), vehicle: saline with Tween-80.
Where [7] appears, read: dose: 200.0 mg/kg/injection, schedule: Q01DX009 (ip), vehicle: saline with Tween-80.
Setting [8] is: dose: 200.0 mg/kg/injection, schedule: Q01DX009 (ip), vehicle: saline.
The mark [9] stands for this setting: dose: 400.0 mg/kg/injection, schedule: Q04DX003 (ip), vehicle: saline.
[10] abbreviates: dose: 400.0 mg/kg/injection, schedule: Q01DX009 (ip), vehicle: other.
[11] abbreviates: dose: 100.0 mg/kg/injection, schedule: Q04DX003 (ip), vehicle: Klucel (hydroxypropylcellulose) (HPC).
Where [12] appears, read: dose: 200.0 mg/kg/injection, schedule: Q04DX003 (ip), vehicle: Klucel (hydroxypropylcellulose) (HPC).
Setting [13] is: dose: 400.0 mg/kg/injection, schedule: Q04DX003 (ip), vehicle: Klucel (hydroxypropylcellulose) (HPC).
Where [14] appears, read: dose: 12.5 mg/kg/injection, schedule: Q01DX009 (ip), vehicle: Klucel (hydroxypropylcellulose) (HPC).
Setting [15] is: dose: 25.0 mg/kg/injection, schedule: Q01DX009 (ip), vehicle: Klucel (hydroxypropylcellulose) (HPC).
The mark [16] stands for this setting: dose: 100.0 mg/kg/injection, schedule: Q01DX009 (ip), vehicle: Klucel (hydroxypropylcellulose) (HPC).

Take `O=C(Nc1ccc(S(=O)(=O)O)cc1)c1ccc([N+](=O)[O-])cc1`: the T/C runs as follows: (dose: 25.0 mg/kg/injection, schedule: Q01DX009 (ip), vehicle: saline) 100 % of control; (dose: 50.0 mg/kg/injection, schedule: Q01DX009 (ip), vehicle: saline) 100 % of control; under setting [1], 100 % of control; under setting [2], 100 % of control; (dose: 176.0 mg/kg/injection, schedule: Q04DX003 (ip), vehicle: saline with Tween-80) 100 % of control; under setting [3], 100 % of control. In addition, the T/C is 110 % of control (dose: 264.0 mg/kg/injection, schedule: Q04DX003 (ip), vehicle: saline with Tween-80); 95 % of control and 120 % of control (dose: 264.0 mg/kg/injection, schedule: Q04DX003 (ip), vehicle: saline); 100 % of control under setting [4].

Take `Nc1ccc(-c2ccc(N)cc2Br)c(Br)c1`: the T/C is, setting by setting: (dose: 100.0 mg/kg/injection, schedule: Q04DX003 (ip), vehicle: saline with Tween-80) 100 % of control; (dose: 200.0 mg/kg/injection, schedule: Q04DX003 (ip), vehicle: saline with Tween-80) 95 % of control; under setting [4], 104 % of control.

As for `N#Cc1cccc(CC(O)(c2ccccc2)c2cccc3ccccc23)c1` (stereo not drawn), the T/C runs as follows: under setting [5], 103 % of control; under setting [6], 97 % of control; under setting [7], 99 % of control.

As for `O=C1OC2C(I)C3CCC2C1C3` (stereo not drawn), the T/C runs as follows: under setting [1], 105 % of control; under setting [2], 121 % of control; under setting [8], 115 % of control; under setting [3], 95 % of control; under setting [9], 95 % of control.

Consider `Cc1c(OCc2ccccc2)cccc1[N+](=O)[O-]`, for which the T/C by setting is: (dose: 100.0 mg/kg/injection, schedule: Q01DX009 (ip), vehicle: other) 109 % of control; (dose: 100.0 mg/kg/injection, schedule: Q04DX003 (ip), vehicle: other) 113 % of control; (dose: 200.0 mg/kg/injection, schedule: Q01DX009 (ip), vehicle: other) 119 % of control; (dose: 200.0 mg/kg/injection, schedule: Q04DX003 (ip), vehicle: other) 100 % of control; under setting [10], 109 % of control; (dose: 400.0 mg/kg/injection, schedule: Q04DX003 (ip), vehicle: other) 109 % of control.

Regarding `Cc1cnccc1Br`, the T/C was 103 % of control (dose: 12.5 mg/kg/injection, schedule: Q04DX003 (ip), vehicle: water); 103 % of control (dose: 25.0 mg/kg/injection, schedule: Q04DX003 (ip), vehicle: water); 103 % of control (dose: 50.0 mg/kg/injection, schedule: Q04DX003 (ip), vehicle: water); 97 % of control (dose: 100.0 mg/kg/injection, schedule: Q04DX003 (ip), vehicle: water); 94 % of control (dose: 200.0 mg/kg/injection, schedule: Q04DX003 (ip), vehicle: water).

For `CS(=O)CC(O)(c1ccccc1)c1ccccn1` (stereo not drawn), the T/C is, setting by setting: under setting [5], 103 % of control; under setting [6], 110 % of control; under setting [7], 100 % of control.

As for `COc1ccc(/C=N/n2c(C)cc(C)c(C#N)c2=O)c(OC)c1OC`, the T/C was 100 % of control under setting [6]; 115 % of control under setting [11]; 86 % of control under setting [7]; 100 % of control under setting [12]; 113 % of control (dose: 400.0 mg/kg/injection, schedule: Q01DX009 (ip), vehicle: saline with Tween-80); 100 % of control under setting [13].

As for `c1csc(NC(Nc2nccs2)C2CCCCC2)n1`, the T/C under setting [5] was 101 % of control, the T/C under setting [6] was 96 % of control and the T/C under setting [7] is 96 % of control.

With `COc1cc2c3cc1Oc1c(O)c(OC)cc4c1C(Cc1cc5c(c(c1)Oc1ccc(cc1)CC3N(C)CC2)OCO5)N(C)CC4` (stereo not drawn), the T/C (dose: 1.25 mg/kg/injection, schedule: Q01DX010 (ip), vehicle: saline) was 90 % of control; the T/C (dose: 2.5 mg/kg/injection, schedule: Q01DX010 (ip), vehicle: saline) is 95 % of control; the T/C (dose: 5.0 mg/kg/injection, schedule: Q01DX010 (ip), vehicle: saline) was 90 % of control; the T/C (dose: 10.0 mg/kg/injection, schedule: Q01DX010 (ip), vehicle: saline) is 86 % of control.

`O=C(/C(=C/c1ccccc1)CBr)c1ccccc1`: the T/C was 109 % of control (dose: 1.6 mg/kg/injection, schedule: Q01DX009 (ip), vehicle: Klucel (hydroxypropylcellulose) (HPC)); 100 % of control (dose: 3.1 mg/kg/injection, schedule: Q01DX009 (ip), vehicle: Klucel (hydroxypropylcellulose) (HPC)); 104 % of control (dose: 6.25 mg/kg/injection, schedule: Q01DX009 (ip), vehicle: Klucel (hydroxypropylcellulose) (HPC)); 86 % of control under setting [14]; 104 % of control (dose: 12.5 mg/kg/injection, schedule: Q04DX003 (ip), vehicle: Klucel (hydroxypropylcellulose) (HPC)); 86 % of control under setting [15]. Further, the T/C is 95 % of control (dose: 25.0 mg/kg/injection, schedule: Q04DX003 (ip), vehicle: Klucel (hydroxypropylcellulose) (HPC)) and 95 % of control (dose: 50.0 mg/kg/injection, schedule: Q04DX003 (ip), vehicle: Klucel (hydroxypropylcellulose) (HPC)).

For the compound `CNCc1c2c(O)c3c(O)c(C)c4c(c3c1O)C(=O)C(C)(O/C=C/C(OC)C(C)C(OC(C)=O)C(C)C(O)C(C)C(O)C(C)/C=C/C=C(/C)C(=O)N2)O4` (stereo not drawn), the T/C is 100 % of control under setting [5], 89 % of control under setting [6] and 116 % of control under setting [7].

For the compound `NC(=O)NCCNC(N)=O`, the T/C was 95 % of control under setting [1]; 112 % of control under setting [2]; 95 % of control under setting [8]; 95 % of control under setting [3]; 91 % of control (dose: 400.0 mg/kg/injection, schedule: Q01DX009 (ip), vehicle: saline); 112 % of control under setting [9].

Take `O=C(Nc1cccc(Br)c1)N1c2ccccc2SC12CCCC2`: the T/C is, setting by setting: under setting [5], 89 % of control; under setting [6], 97 % of control; under setting [7], 106 % of control.

With `CC12CCC3C(CCC4=CC(=O)CCC43C)C1CCC(=O)O2` (stereo not drawn), the T/C was 95 % of control under setting [14]; 95 % of control under setting [15]; 104 % of control (dose: 50.0 mg/kg/injection, schedule: Q01DX009 (ip), vehicle: Klucel (hydroxypropylcellulose) (HPC)); 95 % of control under setting [16]; 109 % of control under setting [11]; 90 % of control under setting [12]. Under setting [13], the T/C was 90 % of control.

With `CC1C2CCCC1(OC(=O)c1cc([N+](=O)[O-])cc([N+](=O)[O-])c1)C2` (stereo not drawn), the T/C reads like this: (dose: 100.0 mg/kg/injection, schedule: Q04DX002 (ip), vehicle: saline with Tween-80) 101 % of control; (dose: 200.0 mg/kg/injection, schedule: Q04DX002 (ip), vehicle: saline with Tween-80) 94 % of control; (dose: 400.0 mg/kg/injection, schedule: Q04DX002 (ip), vehicle: saline with Tween-80) 95 % of control.

Take `CC#CCOCC1CO1` (stereo not drawn): the T/C reads like this: (dose: 66.0 mg/kg/injection, schedule: Q01DX009 (ip), vehicle: saline with Tween-80) 160 % of control; under setting [6], 115 % of control; under setting [2], 104 % of control; under setting [3], 100 % of control.

As to `O=C(O)C1=NN(c2cc(Cl)c(S(=O)(=O)O)cc2Cl)C(=O)C1`, the T/C under setting [16] is 100 % of control; the T/C under setting [1] was 110 % of control; the T/C under setting [2] was 95 % of control; the T/C (dose: 175.0 mg/kg/injection, schedule: Q01DX009 (ip), vehicle: other) is 100 % of control; the T/C (dose: 200.0 mg/kg/injection, schedule: Q01DX009 (ip), vehicle: Klucel (hydroxypropylcellulose) (HPC)) was 108 % of control; the T/C under setting [8] was 120 % of control. Further, the T/C reads like this: under setting [3], 95 % of control; (dose: 265.0 mg/kg/injection, schedule: Q01DX009 (ip), vehicle: other) 88 % of control; (dose: 400.0 mg/kg/injection, schedule: Q01DX009 (ip), vehicle: Klucel (hydroxypropylcellulose) (HPC)) 104 % of control; under setting [10], 100 % of control; under setting [9], 118 % of control; (dose: 600.0 mg/kg/injection, schedule: Q01DX009 (ip), vehicle: other) 88 % of control.
